According to PMC9127750, “Structure-based design of CDC42 effector interaction inhibitors for the treatment of cancer” (Cell reports, 2022):
“And” between values parts separate entries of the source, which are not always exact repeats. Equal entries are not always repeated.

System: WM3248 melanoma cells, 486 antibodies
Test: Reverse phase protein arrays (RPPA)
Type: cell-based, Human
Text: Pellets were snap frozen in liquid nitrogen and shipped to MD Anderson Cancer Center core RPPA facility for RPPA analysis (Table S5). Three biological replicates for each sample were generated.
Nomenclatures on the RPPA heatmaps: name_of_antibody.species_of_antibody.status_of_antibody. V - antibody validated; C - validation of antibody in progress; Q - antibody nonspecific; E – under evaluation; antibodies raised in M - mouse, G - goat, R - rabbit, or T - rat.

[1] = level 20 normalized to 0, mean of 3
[2] = level 20 normalized to 0, single replicates

## CN(C)c1cccc(Nc2cc(-c3ccccc3)nc(C3CCNCC3)n2)c1 [ARN22089, N1,N1-dimethyl-N3-(6-phenyl-2-(piperidin-4-yl)pyrimidin-4-yl)benzene-1,3-diamine]
Level 10 vs 0
  LCN2.R.V Norm_10 Average: 1.417
  LDHA.R.C Norm_10 Average: 1.541
  LRP6_pS1490.R.V Norm_10 Average: 0.919
  Lasu1.R.V Norm_10 Average: 1.173
  MACC1.R.V Norm_10 Average: 0.973
  MAPK_pT202_Y204.R.C Norm_10 Average: 0.758
  MCT4.R.V Norm_10 Average: 0.926
  MDM2_pS166.R.V Norm_10 Average: 1.140
  MEK1.R.V Norm_10 Average: 1.376
  MEK1_pS217_S221.R.V Norm_10 Average: 0.904
  MEK2.R.V Norm_10 Average: 0.981
  MERIT40.R.C Norm_10 Average: 0.966
  MERIT40_pS29.R.V Norm_10 Average: 1.055
  METTL3.R.V Norm_10 Average: 1.153
  MIF.R.C Norm_10 Average: 1.003
  MIG6.R.V Norm_10 Average: 0.937
  MITF.R.V Norm_10 Average: 1.099
  MLH1.M.V Norm_10 Average: 0.965
  MLKL.R.V Norm_10 Average: 0.901
  MMP2.R.V Norm_10 Average: 0.936
  MMP14.R.V Norm_10 Average: 1.251
  MR1.M.C Norm_10 Average: 1.002
  MSH6.R.C Norm_10 Average: 1.139
  MSI2.R.C Norm_10 Average: 1.076
  MTCO1.M.V Norm_10 Average: 1.058
  MTSS1.M.C Norm_10 Average: 0.995
  Mcl.1.R.V Norm_10 Average: 0.815
  MelanA.R.C Norm_10 Average: 0.907
  Melanoma.gp100.R.C Norm_10 Average: 0.952
  Merlin.R.C Norm_10 Average: 1.140
  Midkine.R.V Norm_10 Average: 0.931
  Mitofusin.1.R.V Norm_10 Average: 0.966
  Mitofusin.2.R.V Norm_10 Average: 0.982
  Mnk1.R.V Norm_10 Average: 0.908
  mTOR_pS2448.R.C Norm_10 Average: 1.026
Level 10 vs 0, replicates
  HLA.DQA1.R.V Norm_10: 0.816 and 1.208 and 0.956
  HLA.DR.DP.DQ.DX.R.C Norm_10: 0.907 and 1.197
  HMHA1.R.V Norm_10: 0.915 and 0.873 and 0.979
  HNRNPK.R.V Norm_10: 0.952 and 0.960
  HSP27.M.C Norm_10: 0.892 and 1.008 and 0.976
  HSP27_pS82.R.V Norm_10: 0.956 and 0.808 and 0.983
  HSP60.R.V Norm_10: 0.910 and 0.899 and 0.970
  HSP70.R.C Norm_10: 0.893 and 0.957
  Hexokinase.I.R.C Norm_10: 1.324 and 1.263
  Hexokinase.II.R.V Norm_10: 1.158 and 1.060 and 1.165
  Hif.1αR.C Norm_10: 1.534 and 0.812 and 1.121
  Histone.H3.R.V Norm_10: 1.104 and 1.109 and 0.657
  Histone.H3_pS10.R.V Norm_10: 0.925 and 1.333 and 0.853
  IDO.R.C Norm_10: 1.020 and 0.847 and 1.005
  IGF1R_pY1135_Y1136.R.V Norm_10: 1.020 and 0.873 and 0.862
  IGFBP2.R.V Norm_10: 0.915 and 0.942
  IGFBP3.M.V Norm_10: 0.808 and 1.056 and 1.048
  IGFRb.R.C Norm_10: 1.063 and 0.914 and 0.882
  IL.6.R.C Norm_10: 0.956 and 0.898 and 0.919
  IMP3.R.C Norm_10: 0.902 and 1.022 and 0.935
  INPP4b.R.C Norm_10: 0.944 and 1.130 and 1.013
  IR.b.R.C Norm_10: 1.057 and 0.927 and 0.958
  IRF.1.R.V Norm_10: 0.995 and 0.851 and 0.777
  IRF.3.R.V Norm_10: 0.868 and 1.016 and 1.018
  IRS1.R.V Norm_10: 1.002 and 0.864 and 0.920
  IRS2.R.C Norm_10: 1.495 and 0.732 and 0.873
  JAB1.M.C Norm_10: 1.010
  JNK2.R.V Norm_10: 0.700 and 4.357 and 1.864
  JNK_pT183_Y185.R.C Norm_10: 1.101 and 0.836 and 0.927
  Jagged1.R.V Norm_10: 0.925 and 0.930 and 0.952
  Jak2.R.V Norm_10: 0.891 and 0.946
  KAP1.R.V Norm_10: 1.129 and 0.933 and 1.246
  KEAP1.R.V Norm_10: 1.137 and 0.961 and 0.953
  LAD1.R.V Norm_10: 0.810 and 0.787 and 1.126
  LC3A.B.R.C Norm_10: 1.080
  LCN2.R.V Norm_10: 1.979 and 1.149 and 1.123
  LDHA.R.C Norm_10: 1.080 and 1.446 and 2.097
  LRP6_pS1490.R.V Norm_10: 0.997 and 0.923 and 0.837
  Lasu1.R.V Norm_10: 0.972 and 1.377 and 1.170
  Lck.R.V Norm_10: 1.025
  Lyn.R.V Norm_10: 0.836 and 1.342 and 1.046
  MACC1.R.V Norm_10: 0.988 and 0.983
  MAPK_pT202_Y204.R.C Norm_10: 0.814 and 0.633 and 0.828
  MCT4.R.V Norm_10: 0.718 and 0.987
  MDM2_pS166.R.V Norm_10: 1.187 and 1.159
  MEK1.R.V Norm_10: 3.067 and 0.225 and 0.836
  MEK1_pS217_S221.R.V Norm_10: 0.653 and 1.014
  MEK2.R.V Norm_10: 0.958
  MERIT40.R.C Norm_10: 0.835 and 0.967 and 1.096
  MERIT40_pS29.R.V Norm_10: 1.054 and 0.952 and 1.159
  METTL3.R.V Norm_10: 0.943 and 1.355 and 1.161
  MIF.R.C Norm_10: 0.886 and 1.129 and 0.994
  MIG6.R.V Norm_10: 0.854 and 1.033 and 0.924
  MITF.R.V Norm_10: 1.203 and 1.053
  MLH1.M.V Norm_10: 0.862 and 0.921 and 1.113
  MLKL.R.V Norm_10: 0.834 and 0.796
  MMP2.R.V Norm_10: 0.901 and 0.975 and 0.933
  MMP14.R.V Norm_10: 1.370 and 1.223 and 1.159
  MR1.M.C Norm_10: 0.964 and 0.975
  MRAP.R.C Norm_10: 1.105 and 1.029 and 0.983
  MSH2.R.C Norm_10: 0.935 and 1.122
  MSH6.R.C Norm_10: 1.082 and 1.155
  MSI2.R.C Norm_10: 1.122 and 1.158 and 0.948
  MTCO1.M.V Norm_10: 0.961 and 1.134 and 1.079
  MTSS1.M.C Norm_10: 0.883 and 1.065
  Mcl.1.R.V Norm_10: 0.859 and 0.752 and 0.834
  MelanA.R.C Norm_10: 0.771 and 0.904 and 1.047
  Melanoma.gp100.R.C Norm_10: 0.993 and 0.873 and 0.988
  Merlin.R.C Norm_10: 1.228 and 1.105
  Midkine.R.V Norm_10: 0.894 and 0.939 and 0.959
  Mitofusin.1.R.V Norm_10: 0.986 and 0.948 and 0.964
  Mitofusin.2.R.V Norm_10: 0.858 and 0.863 and 1.224
  Mnk1.R.V Norm_10: 0.920 and 0.841 and 0.963
  mTOR.R.V Norm_10: 0.942 and 0.902 and 1.003
  mTOR_pS2448.R.C Norm_10: 1.029 and 0.921 and 1.128
[1]
  TSC1.R.C Norm_20 Average: 0.903
  TTF1.R.V Norm_20 Average: 1.162
  TUFM.R.V Norm_20 Average: 0.835
  Tuberin.R.V Norm_20 Average: 1.019
  Tuberin_pT1462.R.V Norm_20 Average: 1.096
  Twist.M.C Norm_20 Average: 0.916
  Tyro3.R.V Norm_20 Average: 1.270
  U.Histone.H2B.R.C Norm_20 Average: 2.670
  UBQLN4.M.C Norm_20 Average: 0.936
  UGT1A.M.V Norm_20 Average: 0.975
  ULK1_pS757.R.C Norm_20 Average: 0.888
  UVRAG.R.C Norm_20 Average: 1.003
  VASP.R.V Norm_20 Average: 0.936
  VAV1.R.C Norm_20 Average: 1.004
  VEGFR.2.R.V Norm_20 Average: 0.966
  VEGFR.2_pY1175.R.C Norm_20 Average: 0.978
  VHL.EPPK1.M.C Norm_20 Average: 0.882
  VHL.R.C Norm_20 Average: 0.906
  Vinculin.M.V Norm_20 Average: 0.932
  WIPI1.R.C Norm_20 Average: 1.388
  WIPI2.R.C Norm_20 Average: 1.126
  WTAP.R.V Norm_20 Average: 1.278
  Wee1.R.C Norm_20 Average: 0.913
  Wee1_pS642.R.C Norm_20 Average: 0.939
  XIAP.R.C Norm_20 Average: 0.959
  XPA.M.V Norm_20 Average: 0.905
  XPF.R.C Norm_20 Average: 0.890
  YAP.R.C Norm_20 Average: 0.956
  YAP_pS127.R.V Norm_20 Average: 1.018
  YB1_pS102.R.V Norm_20 Average: 0.999
  YES1.R.V Norm_20 Average: 0.970
  YTHDF2.R.V Norm_20 Average: 1.210
  YTHDF3.R.C Norm_20 Average: 1.032
  ZAP.70.R.V Norm_20 Average: 0.888
  ZEB1.R.V Norm_20 Average: 0.961
[2]
  TSC1.R.C Norm_20_1 to Norm_20_3: 1.029 and 0.819 and 0.861
  TTF1.R.V Norm_20_1 to Norm_20_3: 1.129 and 1.026 and 1.331
  TUFM.R.V Norm_20_1 to Norm_20_3: 0.786 and 0.994 and 0.727
  Tuberin.R.V Norm_20_1 to Norm_20_3: 0.859 and 0.737 and 1.461
  Tuberin_pT1462.R.V Norm_20_1 to Norm_20_3: 1.032 and 1.164
  Twist.M.C Norm_20_1 to Norm_20_3: 0.837 and 0.972
  Tyro3.R.V Norm_20_1 to Norm_20_3: 1.252 and 1.345 and 1.211
  U.Histone.H2B.R.C Norm_20_1 to Norm_20_3: 1.699 and 5.734 and 0.577
  UBAC1.R.V Norm_20_1 to Norm_20_3: 1.032 and 1.010 and 1.218
  UBQLN4.M.C Norm_20_1 to Norm_20_3: 0.990 and 0.917 and 0.902
  UGT1A.M.V Norm_20_1 to Norm_20_3: 0.904 and 1.048 and 0.973
  ULK1_pS757.R.C Norm_20_1 to Norm_20_3: 0.939 and 0.770 and 0.955
  UQCRC2.M.C Norm_20_1 to Norm_20_3: 0.954 and 1.047 and 1.204
  UVRAG.R.C Norm_20_1 to Norm_20_3: 1.021 and 1.000 and 0.987
  VASP.R.V Norm_20_1 to Norm_20_3: 0.965 and 0.910 and 0.933
  VAV1.R.C Norm_20_1 to Norm_20_3: 1.081 and 0.961 and 0.970
  VEGFR.2.R.V Norm_20_1 to Norm_20_3: 0.959 and 0.914 and 1.026
  VEGFR.2_pY1175.R.C Norm_20_1 to Norm_20_3: 0.916 and 1.050 and 0.968
